Data taken from the Kinase Knowledgebase extract (Sharma et al. 2016).

The compounds below were run against PIK3CG (UniProt P48736) (assay: Inhibition of PIK3CG Kinase Activity).
PIK3CG, sequence (P48736 whole entry, looked up): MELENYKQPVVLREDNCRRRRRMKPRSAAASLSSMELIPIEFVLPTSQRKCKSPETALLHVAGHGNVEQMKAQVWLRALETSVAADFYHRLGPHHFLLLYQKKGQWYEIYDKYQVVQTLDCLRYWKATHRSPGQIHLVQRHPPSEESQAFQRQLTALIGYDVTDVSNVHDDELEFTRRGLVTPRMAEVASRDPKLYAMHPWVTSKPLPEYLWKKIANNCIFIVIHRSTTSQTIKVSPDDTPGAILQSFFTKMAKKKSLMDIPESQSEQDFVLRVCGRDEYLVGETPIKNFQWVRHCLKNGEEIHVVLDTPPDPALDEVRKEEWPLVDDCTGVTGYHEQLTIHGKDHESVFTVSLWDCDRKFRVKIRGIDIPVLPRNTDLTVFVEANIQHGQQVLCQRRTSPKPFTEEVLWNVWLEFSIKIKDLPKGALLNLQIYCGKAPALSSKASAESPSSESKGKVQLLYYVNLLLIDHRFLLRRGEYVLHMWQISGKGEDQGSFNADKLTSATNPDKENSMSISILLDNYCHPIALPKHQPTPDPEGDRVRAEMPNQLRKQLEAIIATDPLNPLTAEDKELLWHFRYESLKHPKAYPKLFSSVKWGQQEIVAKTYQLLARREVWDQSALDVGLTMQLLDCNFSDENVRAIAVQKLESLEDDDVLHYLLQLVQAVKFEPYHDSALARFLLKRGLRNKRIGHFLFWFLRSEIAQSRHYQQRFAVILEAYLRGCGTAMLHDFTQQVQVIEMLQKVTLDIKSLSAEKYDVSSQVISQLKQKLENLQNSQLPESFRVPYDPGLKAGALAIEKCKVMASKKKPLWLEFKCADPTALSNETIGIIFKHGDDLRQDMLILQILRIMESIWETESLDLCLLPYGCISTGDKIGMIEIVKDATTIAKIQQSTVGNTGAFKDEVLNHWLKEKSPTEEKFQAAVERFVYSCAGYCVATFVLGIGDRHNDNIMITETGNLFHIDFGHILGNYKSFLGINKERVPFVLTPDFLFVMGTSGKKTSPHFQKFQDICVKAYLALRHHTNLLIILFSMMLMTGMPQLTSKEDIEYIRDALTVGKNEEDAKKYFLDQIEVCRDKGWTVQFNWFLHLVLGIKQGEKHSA

Structure (SMILES) | IC50
CC(C)(C)c1cc(C(C)(C)C)nc(CN2C(=O)COc3c(F)cc(C=C4SC(=S)NC4=O)cc32)n1 | 1240 nM
CCOC(=O)N1CCC(Cc2ccc(CN3C(=O)COc4ccc(C=C5SC(=S)NC5=O)cc43)cc2)CC1 | 52 nM
CCOC(=O)N1CCC(Cc2ccc(CN3C(=O)COc4ccc(C=C5SC(=O)NC5=O)cc43)cc2)CC1 | 32 nM
O=C1NC(=S)SC1=Cc1ccc2c(c1)N(CCc1ccc(C(F)(F)F)cc1C(F)(F)F)C(=O)CO2 | 14 nM
CC1CC(C)CN(CCCN2C(=O)COc3c(F)cc(C=C4SC(=S)NC4=O)cc32)C1 (stereo not given) | 18.5 nM
O=C1NC(=S)SC1=Cc1ccc2c(c1)N(CC1CCCCC1)C(=O)CO2 | 2 nM
COc1ccc(CCCN2C(=O)COc3ccc(C=C4SC(=O)NC4=O)cc32)cc1 | 18 nM
O=C1NC(=S)SC1=Cc1cc(F)c2c(c1)N(Cc1ccc(F)c(Cl)c1)C(=O)CO2 | 2 nM
CCN1C(=O)COc2ccc(C=C3SC(=S)NC3=O)cc21 | 42 nM
CN1C(=O)COC2C=CC(C=C3OC(=S)NC3=O)=CC21 (stereo not given) | 16 nM

Continued by falling IC50, values first:

IC50 | Structure (SMILES)
3180 nM | CC(C)(C)OC(=O)N1CCC(C(=O)CN2C(=O)COc3ccc(C=C4SC(=S)NC4=O)cc32)CC1
2070 nM | CC(C)(C)c1cc(C(C)(C)C)nc(CN2C(=O)COc3ccc(C=C4SC(=S)NC4=O)cc32)n1
55 nM | O=C1NC(=S)SC1=Cc1cc(F)c2c(c1)N(CCCN1CCOCC1)C(=O)CO2
22 nM | CC(C)(C)c1cc(O)cc(CN2C(=O)COc3ccc(C=C4SC(=S)NC4=O)cc32)c1
5 nM | CC(C)(C)c1cc(CN2C(=O)COc3c(F)cc(C=C4SC(=S)NC4=O)cc32)cc(C(C)(C)O)c1
